According to ChEMBL document CHEMBL5665443, “Enzyme Inhibitor Single Concentration assay results for EUbOPEN Chemogenomics Library” (2024):

Legend:
Settings in all cases: Compound Concentration 10.0 uM, Hit No
[1] = target: DNA-3-methyladenine glycosylase (Homo sapiens) (UniProt P29372);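 further: enzyme assay where MPG cuts a quenched duplex DNA oligonucleotide probe, paired with APE1 for strand incision and turnover, read as fluorescence at 594 nm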
Description: Inhibition of MPG by quantifying inhibition of MPG-mediated cleavage and dissociation of quenched duplex DNA oligonucleotides, measured as fluorescence at 594 nm. To generate a functional strand incision and increase turn-over this assay is coupled to APE1.

[2] = target: T1, Adenine DNA glycosylase (Homo sapiens) (UniProt Q9UIF7);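 further: human MUTYH activity read as 594 nm fluorescence from cleavage and release of a quenched DNA duplex, coupled with APE1 for strand incision, lower signal meaning inhibition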
T1 sequence (whole entry): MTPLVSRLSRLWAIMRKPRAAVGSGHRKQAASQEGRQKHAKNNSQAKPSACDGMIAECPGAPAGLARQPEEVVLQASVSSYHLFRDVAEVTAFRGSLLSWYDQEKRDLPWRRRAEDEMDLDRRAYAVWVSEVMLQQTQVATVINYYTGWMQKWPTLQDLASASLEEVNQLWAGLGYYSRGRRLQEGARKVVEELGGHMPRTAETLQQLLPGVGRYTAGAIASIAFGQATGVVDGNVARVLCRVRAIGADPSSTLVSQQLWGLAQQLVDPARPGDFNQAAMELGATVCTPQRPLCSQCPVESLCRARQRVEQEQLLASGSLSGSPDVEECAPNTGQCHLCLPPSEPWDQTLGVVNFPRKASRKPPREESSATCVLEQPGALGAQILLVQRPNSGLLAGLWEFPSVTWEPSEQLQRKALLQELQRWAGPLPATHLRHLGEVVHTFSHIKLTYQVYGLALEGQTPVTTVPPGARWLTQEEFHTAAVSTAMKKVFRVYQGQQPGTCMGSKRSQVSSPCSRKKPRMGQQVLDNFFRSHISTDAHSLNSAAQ
Description: Inhibition of MUTYH by quantifying inhibition of MUTYH-mediated cleavage and dissociation of quenched duplex DNA oligonucleotides, measured as fluorescence at 594 nm. To generate a functional strand incision and increase turn-over this assay is coupled to APE1.

[3] = target: Endonuclease 8-like 1 (Homo sapiens) (UniProt Q96FI4);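 further: fluorescence at 594 nm from quenched duplex DNA oligonucleotides released by NEIL1 cleavage and strand separation, reported as reduction of this enzyme activity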
Endonuclease 8-like 1 (Homo sapiens), sequence (Q96FI4 whole entry): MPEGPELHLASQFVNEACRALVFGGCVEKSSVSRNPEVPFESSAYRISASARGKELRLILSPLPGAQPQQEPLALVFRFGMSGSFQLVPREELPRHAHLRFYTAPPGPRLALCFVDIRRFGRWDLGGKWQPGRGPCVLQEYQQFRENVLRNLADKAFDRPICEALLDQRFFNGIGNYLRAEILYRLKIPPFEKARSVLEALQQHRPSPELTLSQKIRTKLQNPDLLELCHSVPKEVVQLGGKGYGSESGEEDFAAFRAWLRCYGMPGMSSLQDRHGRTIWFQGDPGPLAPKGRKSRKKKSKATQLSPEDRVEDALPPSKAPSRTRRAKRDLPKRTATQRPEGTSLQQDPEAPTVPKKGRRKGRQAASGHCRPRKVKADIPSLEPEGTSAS
Description: Inhibition of NEIL1 by quantifying inhibition of NEIL1-mediated cleavage and dissociation of quenched duplex DNA oligonucleotides, measured as fluorescence at 594 nm.

[4] = target: T2, Endonuclease 8-like 2 (Homo sapiens) (UniProt Q969S2);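 further: fluorescence at 594 nm reports NEIL2 cutting and release of a quenched double-stranded DNA oligo substrate, reduced signal read as inhibition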
T2 sequence (whole entry): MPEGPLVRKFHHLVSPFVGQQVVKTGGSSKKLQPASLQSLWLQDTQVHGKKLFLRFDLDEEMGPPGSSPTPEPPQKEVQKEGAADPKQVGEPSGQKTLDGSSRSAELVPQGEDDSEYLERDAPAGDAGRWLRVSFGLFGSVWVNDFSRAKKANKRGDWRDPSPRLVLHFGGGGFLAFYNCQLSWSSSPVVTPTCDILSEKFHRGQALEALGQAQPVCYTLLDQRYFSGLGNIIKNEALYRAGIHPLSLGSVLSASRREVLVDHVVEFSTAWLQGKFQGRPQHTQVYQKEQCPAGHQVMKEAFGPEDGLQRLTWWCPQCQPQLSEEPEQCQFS
Description: Inhibition of NEIL2 by quantifying inhibition of NEIL2-mediated cleavage and dissociation of quenched duplex DNA oligonucleotides, measured as fluorescence at 594 nm.

[5] = target: T3, Endonuclease III-like protein 1 (Homo sapiens) (UniProt P78549);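 further: enzyme assay tracking NTHL1 cutting and release of a quenched double-stranded DNA oligo substrate, read as fluorescence at 594 nm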
T3 sequence (whole entry): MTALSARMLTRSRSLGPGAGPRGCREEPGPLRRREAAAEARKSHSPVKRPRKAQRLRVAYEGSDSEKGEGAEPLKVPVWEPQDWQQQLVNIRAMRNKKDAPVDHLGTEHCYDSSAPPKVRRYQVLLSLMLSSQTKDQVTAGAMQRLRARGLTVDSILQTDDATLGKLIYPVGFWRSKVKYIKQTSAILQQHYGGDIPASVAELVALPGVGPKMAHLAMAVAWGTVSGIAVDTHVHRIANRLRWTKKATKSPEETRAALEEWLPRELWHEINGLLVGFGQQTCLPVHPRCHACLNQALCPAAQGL
Description: Inhibition of NTHL1 by quantifying inhibition of NTHL1-mediated cleavage and dissociation of quenched duplex DNA oligonucleotides, measured as fluorescence at 594 nm.

[6] = target: N-glycosylase/DNA lyase (Homo sapiens) (UniProt O15527);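 further: OGG1 cleavage of a quenched duplex DNA oligonucleotide, coupled to APE1 for strand incision, read as fluorescence at 594 nm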
N-glycosylase/DNA lyase (Homo sapiens), sequence (O15527 whole entry): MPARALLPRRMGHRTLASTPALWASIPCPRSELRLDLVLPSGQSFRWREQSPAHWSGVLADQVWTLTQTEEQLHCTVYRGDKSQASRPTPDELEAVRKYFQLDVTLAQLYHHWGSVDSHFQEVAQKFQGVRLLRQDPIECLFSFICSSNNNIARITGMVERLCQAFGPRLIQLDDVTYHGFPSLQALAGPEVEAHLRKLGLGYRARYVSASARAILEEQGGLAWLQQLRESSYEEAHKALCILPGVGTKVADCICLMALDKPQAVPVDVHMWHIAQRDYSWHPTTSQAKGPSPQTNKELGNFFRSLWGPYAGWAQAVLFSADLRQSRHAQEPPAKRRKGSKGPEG
Description: Inhibition of OGG1 by quantifying inhibition of OGG1-mediated cleavage and dissociation of quenched duplex DNA oligonucleotides, measured as fluorescence at 594 nm. To generate a functional strand incision and increase turn-over this assay is coupled to APE1.

[7] = target: T4, Single-strand selective monofunctional uracil DNA glycosylase (Homo sapiens) (UniProt Q53HV7);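 further: enzymatic SMUG1 assay coupled with APE1, reading fluorescence at 594 nm released when a quenched double-stranded DNA oligonucleotide substrate is cleaved and separated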
T4 sequence (whole entry): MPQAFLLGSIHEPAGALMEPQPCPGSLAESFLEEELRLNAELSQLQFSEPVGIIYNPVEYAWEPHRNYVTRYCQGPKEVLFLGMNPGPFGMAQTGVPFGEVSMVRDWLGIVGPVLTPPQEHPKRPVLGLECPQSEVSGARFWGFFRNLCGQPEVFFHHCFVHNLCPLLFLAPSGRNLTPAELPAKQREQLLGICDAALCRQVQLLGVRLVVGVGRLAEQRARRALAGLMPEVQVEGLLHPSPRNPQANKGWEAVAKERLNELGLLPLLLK
Description: Inhibition of SMUG1 by quantifying inhibition of SMUG1-mediated cleavage and dissociation of quenched duplex DNA oligonucleotides, measured as fluorescence at 594 nm. To generate a functional strand incision and increase turn-over this assay is coupled to APE1.

[8] = target: G/T mismatch-specific thymine DNA glycosylase (Homo sapiens) (UniProt Q13569);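 further: human TDG cleavage of quenched duplex DNA oligonucleotides coupled to APE1, strand release read as fluorescence at 594 nm, inhibition of TDG activity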
G/T mismatch-specific thymine DNA glycosylase (Homo sapiens), sequence (Q13569 whole entry): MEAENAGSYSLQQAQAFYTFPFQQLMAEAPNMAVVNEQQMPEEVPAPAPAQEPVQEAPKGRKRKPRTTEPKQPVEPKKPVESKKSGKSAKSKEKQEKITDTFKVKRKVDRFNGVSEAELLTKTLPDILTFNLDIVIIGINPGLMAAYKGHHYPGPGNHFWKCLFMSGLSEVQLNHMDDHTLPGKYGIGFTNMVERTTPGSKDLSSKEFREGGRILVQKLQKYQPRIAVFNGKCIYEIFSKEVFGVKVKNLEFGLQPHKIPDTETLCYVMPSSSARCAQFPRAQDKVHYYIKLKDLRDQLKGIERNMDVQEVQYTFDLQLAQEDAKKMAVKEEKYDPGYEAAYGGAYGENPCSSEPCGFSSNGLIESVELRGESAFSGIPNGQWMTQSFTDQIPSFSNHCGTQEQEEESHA
Description: Inhibition of TDG by quantifying inhibition of TDG-mediated cleavage and dissociation of quenched duplex DNA oligonucleotides, measured as fluorescence at 594 nm. To generate a functional strand incision and increase turn-over this assay is coupled to APE1.

[9] = target: Uracil-DNA glycosylase (Homo sapiens) (UniProt P13051);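 further: UNG excision on a quenched double-stranded DNA oligo probe, with APE1 added for strand incision and turnover, read as fluorescence at 594 nm as strands separate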
Uracil-DNA glycosylase (Homo sapiens), sequence (P13051 whole entry): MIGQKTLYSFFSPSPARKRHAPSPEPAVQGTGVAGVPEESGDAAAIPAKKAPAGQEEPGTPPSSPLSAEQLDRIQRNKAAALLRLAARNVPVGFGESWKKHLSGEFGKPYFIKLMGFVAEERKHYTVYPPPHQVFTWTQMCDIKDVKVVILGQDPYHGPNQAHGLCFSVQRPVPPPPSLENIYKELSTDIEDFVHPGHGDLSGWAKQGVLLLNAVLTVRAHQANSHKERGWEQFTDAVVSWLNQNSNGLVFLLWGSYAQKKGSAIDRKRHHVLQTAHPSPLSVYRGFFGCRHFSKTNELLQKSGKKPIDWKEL
Description: Inhibition of UNG by quantifying inhibition of UNG-mediated cleavage and dissociation of quenched duplex DNA oligonucleotides, measured as fluorescence at 594 nm. To generate a functional strand incision and increase turn-over this assay is coupled to APE1.

DNA-3-methyladenine glycosylase (Homo sapiens), sequence (P29372 whole entry): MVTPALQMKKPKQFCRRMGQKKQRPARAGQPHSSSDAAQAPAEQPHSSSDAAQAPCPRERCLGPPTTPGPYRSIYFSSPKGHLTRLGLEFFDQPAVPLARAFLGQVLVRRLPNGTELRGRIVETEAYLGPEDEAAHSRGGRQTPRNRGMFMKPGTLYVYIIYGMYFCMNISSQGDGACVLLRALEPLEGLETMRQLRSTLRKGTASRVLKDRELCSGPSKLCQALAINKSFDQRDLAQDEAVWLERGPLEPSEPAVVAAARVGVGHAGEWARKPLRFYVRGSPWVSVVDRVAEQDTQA

| Compound | inhibition [1] [%] | inhibition [2] [%] | inhibition [3] [%] | inhibition [4] [%] | inhibition [5] [%] | inhibition [6] [%] | inhibition [7] [%] | inhibition [8] [%] | inhibition [9] [%] |
| --- | --- | --- | --- | --- | --- | --- | --- | --- | --- |
| CC(C)c1ccc(CC(=O)N[C@H](C)c2ccc(OCC(F)(F)F)cn2)cc1 | 9.35 | -5.06 | 3.42 | -3.66 | 8 | -4.46 | 4.45 | -9.7 | -0.689 |
| CN(C)CC[C@@H](c1ccc(Cl)cc1)c1ccccn1 | 0.18 | 11.5 | -2.28 | 12 | 6.32 | -3.11 | – | 6.86 | -8.86 |
| c1ccc2c(c1)CCC[C@H]2Nc1nc2ccccc2[nH]1 | 9.2 | 2.96 | 4.46 | 3.47 | 4.7 | 1.89 | -5.61 | 8.8 | -4.72 |
| COc1ccc(C2(O)OC(=O)C(c3ccc4c(c3)OCO4)=C2Cc2cc(OC)c(OC)c(OC)c2)cc1 (centres undefined) | 13.2 | 22.7 | -4.95 | – | 15.1 | -9.68 | – | 8.23 | -1.01 |
| O=C(Nc1cc(C(F)(F)F)cc(C(F)(F)F)c1)c1cc(Cl)ccc1O | 9.82 | -9.19 | 1.2 | -3.41 | 6.35 | 28.6 | 4.73 | – | -1.16 |
| H-RPPGFSPFR-OH | 15.2 | 29 | 4.01 | -1.37 | 1.39 | -0.678 | 5.92 | 26.9 | 2.31 |
| CCCCCCCC/C=C\CCCCCCCC(N)=O | 17.3 | 15.9 | 12.4 | 2.51 | 2.66 | 4.44 | -2.07 | 12.1 | -8.52 |
| C/N=C(/NC#N)NCCSCc1csc(NC(=N)N)n1 | -5.07 | -6.76 | -6.13 | – | -9.8 | -8.12 | -3.81 | 1.2 | – |
| NC(=O)c1ccc(CNC(=O)NC[C@H]2CN(Cc3ccc(Cl)c(Cl)c3)CCO2)cc1 | -0.36 | 5.52 | 7.06 | 16.2 | 15.8 | -7.25 | – | 19.2 | – |
| O=C(O)C1CN(Cc2ccc(-c3nc4cc(Cc5ccccc5F)ccc4s3)c(F)c2)C1 | -8.77 | -0.363 | -0.945 | -3.48 | 11.4 | -3.25 | – | -3.37 | – |
| COC(c1ccccc1)(c1ccccc1)[C@H](Oc1nc(C)cc(C)n1)C(=O)O | 4.85 | 23.3 | 9.14 | 10.8 | 6.32 | 1.14 | -3.28 | 14.5 | -5.94 |
| Cc1cnc(-c2cc(N3CCN(C(=O)CCS(C)(=O)=O)CC3)ncc2Cl)c(C)c1 | -9.96 | 0.917 | – | -4.23 | 15.8 | -3.06 | – | – | – |
